Results on 68 compounds are retold here after ChEMBL document CHEMBL1152484, “3D-QSAR studies on the inhibitors of AP-1 and NF-kappaB mediated transcriptional activation” (Eur J Med Chem, 2009).

A short description of this test: Inhibition of AP-1/NF-kappaB transfected in human jurkat T cells assessed as inhibition of transcriptional activation. Type of test: cell-based.
By IC50 is commonly meant the concentration needed to halve the response being measured. `CCOC(=O)c1cnc(-c2cc3ccccc3s2)nc1NN1C(=O)C=C(C)C1=O`: the IC50 was 4000 nM.

Consider `CCOC(=O)c1cnc(C(F)(F)F)nc1NN1C(=O)C(C)=C(C)C1=O`, for which the half-maximal inhibitory concentration (IC50) is 10000 nM. As to `CCOC(=O)c1cnc(SC)nc1NN1C(=O)C=C(C)C1=O`, the IC50 was 200 nM. With `CCOC(=O)c1cnc(Sc2ccccc2)nc1NN1C(=O)C=C(C)C1=O`, the 50% inhibitory concentration (IC50) was 1000 nM. The figure for `CC1=CC(=O)N(Nc2nc(-c3cccs3)ncc2C#N)C1=O` is 5000 nM; for `CCOC(=O)c1cnc(-c2cccc(OC)c2)nc1NN1C(=O)C=C(C)C1=O` it is 5000 nM. For the compound `CCOC(=O)c1cnc(-c2csc(C)n2)nc1NN1C(=O)C=C(C)C1=O`, the IC50 was 8000 nM.

Regarding `COc1cc2nc(-c3cccs3)nc(NN3C(=O)C=C(C)C3=O)c2cc1OC`, the IC50 is 50 nM.

As to `CCOC(=O)c1cnc(-c2ccccc2)nc1N(C)N1C(=O)C=C(C)C1=O`, the IC50 was 2000 nM. For the compound `CC1=CC(=O)N(Nc2nc(-c3cccs3)nc3cc(N(C)C)ccc23)C1=O`, the IC50 is 40 nM. In the case of `CCOC(=O)c1cnc(-c2cc(Cl)cc(Cl)c2)nc1NN1C(=O)C=C(C)C1=O`, the IC50 was 300 nM. For the compound `CCOC(=O)c1cnc(-c2ccsc2)nc1NN1C(=O)C=C(C)C1=O`, the IC50 was 100 nM.

Take `CCOC(=O)c1cnc(-c2ccc(C(F)(F)F)cc2)nc1NN1C(=O)C=C(C)C1=O`: the IC50 is 400 nM. Consider `CCOC(=O)c1cnc(-c2cccs2)nc1N(C)N1C(=O)C=C(C)C1=O`, for which the IC50 is 1000 nM. Under `CCOC(=O)c1cnc(Cc2ccccc2)nc1NN1C(=O)C=C(C)C1=O` stands 7000 nM; under `CCOC(=O)c1cnc(CC)nc1N(C)N1C(=O)C=C(C)C1=O`, 10000 nM. For the compound `CCOC(=O)c1cnc(-c2ccncc2)nc1NN1C(=O)C=C(C)C1=O`, the IC50 was 6000 nM. Take `CC1=CC(=O)N(Nc2nc(C(F)(F)F)nc3ccc(O)cc23)C1=O`: the IC50 is 100 nM. Consider `CCOC(=O)c1cnc(-c2ccc(Cl)s2)nc1NN1C(=O)C=C(C)C1=O`, for which the IC50 was 300 nM. Take `CCOC(=O)c1cnc(-c2ccc(C)s2)nc1NN1C(=O)C=C(C)C1=O`: the IC50 is 200 nM.

Take `CC1=CC(=O)N(Nc2nc(-c3cccs3)ncc2-c2nc(C)co2)C1=O`: the IC50 was 200 nM. `CC1=CC(=O)N(Nc2nc(C(F)(F)F)nc3cc(N4CCCCC4)ccc23)C1=O`: the IC50 is 200 nM. For the compound `CCOC(=O)c1cnc(C(F)(F)F)nc1NN1C(=O)C=C(C)C1=O`, the IC50 was 1000 nM.

Turning to `CC1=CC(=O)N(Nc2nc(-c3cccs3)ncc2-c2cc(C)no2)C1=O`, the IC50 is 300 nM. Under `CC1=CC(=O)N(Nc2nc(-c3cccs3)nc3ccccc23)C1=O` stands 60 nM; under `CC1=CC(=O)N(Nc2nc(-c3cccs3)nc3cccc(C)c23)C1=O`, 20 nM.

Regarding `CC1=CC(=O)N(Nc2nc(-c3cccs3)nc3ccc(Cl)cc23)C1=O`, the IC50 was 20 nM. As to `CC1=CC(=O)N(Nc2nc(C(F)(F)F)nc3cccc(C)c23)C1=O`, the IC50 was 400 nM. `COc1ccc2nc(C(F)(F)F)nc(NN3C(=O)C=C(C)C3=O)c2c1`: the IC50 was 30 nM.

For the compound `CC1=CC(=O)N(Nc2nc(-c3cccs3)nc3cccc(F)c23)C1=O`, the 50% inhibitory concentration (IC50) was 50 nM. In the case of `CC1=CC(=O)N(Nc2nc(-c3cccs3)ncc2-c2nnc(C)o2)C1=O`, the IC50 is 300 nM. The figure for `CCOC(=O)c1cnc(C(F)(F)F)nc1NN1C(=O)C=C(c2ccccc2)C1=O` is 20000 nM. Take `CCOC(=O)c1cnc(-c2cccc([N+](=O)[O-])c2)nc1NN1C(=O)C=C(C)C1=O`: the IC50 was 7000 nM.

Turning to `CC1=CC(=O)N(Nc2nc(-c3cccs3)nc3cc(N4CCOCC4)ccc23)C1=O`, the IC50 was 200 nM. Take `COc1cccc2nc(C(F)(F)F)nc(NN3C(=O)C=C(C)C3=O)c12`: the IC50 is 10 nM. Regarding `CCOC(=O)c1cnc(S(=O)(=O)c2ccccc2)nc1NN1C(=O)C=C(C)C1=O`, the IC50 was 10000 nM. In the case of `CCOC(=O)c1cnc(CC)nc1NN1C(=O)C=C(C)C1=O`, the IC50 was 10000 nM. As for `CCOC(=O)c1cnc(C(C)(C)C)nc1NN1C(=O)C=C(C)C1=O`, the IC50 was 1000 nM. As for `CCOC(=O)c1cnc(-c2ccc(Cl)cc2)nc1NN1C(=O)C=C(C)C1=O`, the IC50 is 300 nM. Regarding `CCOC(=O)c1cnc(-n2nc(C)cc2C)nc1NN1C(=O)C=C(C)C1=O`, the IC50 was 10000 nM. For the compound `CC1=CC(=O)N(Nc2nc(-c3ccccc3)nc3ccccc23)C1=O`, the IC50 is 100 nM. For `CCOC(=O)c1cnc(-c2ccccc2)nc1N(C(C)=O)N1C(=O)C=C(C)C1=O`, the IC50 was 4000 nM. Take `CCOC(=O)c1cnc(-c2cccs2)nc1NN1C(=O)C=C(C)C1=O`: the 50% inhibitory concentration (IC50) was 20 nM. `CCOC(=O)c1cnc(-c2cc(Cl)nc(Cl)c2)nc1NN1C(=O)C=C(C)C1=O`: the IC50 is 2000 nM.

Turning to `COc1ccc2c(NN3C(=O)C=C(C)C3=O)nc(-c3cccs3)nc2c1`, the IC50 was 20 nM. Under `CC1=CC(=O)N(Nc2nc(-c3cccs3)ncc2C2=NCCO2)C1=O` stands 200 nM. Take `COc1cccc2nc(-c3cccs3)nc(NN3C(=O)C=C(C)C3=O)c12` [AS-602868]: the IC50 was 8 nM. In the case of `CCOC(=O)c1cnc(-c2ccc(OC)cc2)nc1NN1C(=O)C=C(C)C1=O`, the 50% inhibitory concentration (IC50) was 899 nM. In the case of `CCOC(=O)c1cnc(C)nc1NN1C(=O)C=C(C)C1=O`, the IC50 was 16000 nM.

`COc1ccc2nc(-c3cccs3)nc(NN3C(=O)C=C(C)C3=O)c2c1`: the IC50 was 3 nM. `CCOC(=O)c1cnc(C2CC2)nc1NN1C(=O)C=C(C)C1=O`: the IC50 was 1000 nM. Consider `CCOC(=O)c1cnc(-c2cccc(Br)c2)nc1NN1C(=O)C=C(C)C1=O`, for which the IC50 is 700 nM. Turning to `CCOC(=O)c1cnc(-c2ccccc2)nc1NN1C(=O)C=C(C)C1=O`, the IC50 was 100 nM. As for `CCOC(=O)c1cnc(-c2cnc3ccccc3c2)nc1NN1C(=O)C=C(C)C1=O`, the IC50 was 10000 nM.

`CC1=CC(=O)N(Nc2nc(C(F)(F)F)nc3cc(N(C)C)ccc23)C1=O`: the IC50 is 20 nM.

As for `CCOC(=O)c1cnc(-c2ccc(F)cc2)nc1N(C)N1C(=O)C=C(C)C1=O`, the IC50 was 3000 nM. Under `COc1cc2c(NN3C(=O)C=C(C)C3=O)nc(-c3cccs3)nc2c(OC)c1OC` stands 40 nM; under `CC1=CC(=O)N(Nc2nc(-c3cccs3)ncc2-c2nnn(C)n2)C1=O`, 200 nM; under `CCOC(=O)c1cnc(C(F)(F)F)nc1NN1C(=O)C=CC1=O`, 10000 nM. As for `CCOC(=O)c1cnc(CC2=CCCCC2)nc1NN1C(=O)C=C(C)C1=O`, the IC50 is 2000 nM. On to `CCOC(=O)c1cnc(Oc2ccccc2)nc1NN1C(=O)C=C(C)C1=O`, for which the IC50 is 15000 nM.

For the compound `CCOC(=O)c1cnc(C(=O)c2ccco2)nc1NN1C(=O)C=C(C)C1=O`, the IC50 was 200 nM.

For `CSc1ccc2nc(C(F)(F)F)nc(NN3C(=O)C=C(C)C3=O)c2c1`, the IC50 was 80 nM. In the case of `CC1=CC(=O)N(Nc2nc(C(F)(F)F)nc3ccc(S(C)(=O)=O)cc23)C1=O`, the IC50 was 8990 nM. Turning to `CC1=CC(=O)N(Nc2nc(C(F)(F)F)nc3ccc([S+](C)[O-])cc23)C1=O` (stereo not drawn), the IC50 is 1000 nM. Under `CC1=CC(=O)N(Nc2nc(C(F)(F)F)nc3ccccc23)C1=O` stands 100 nM; under `CCOC(=O)c1cnc(-c2ccc(F)cc2)nc1NN1C(=O)C=C(C)C1=O`, 700 nM. Consider `COc1cccc2c(NN3C(=O)C=C(C)C3=O)nc(-c3cccs3)nc12`, for which the IC50 is 50 nM.
